Results as given in US12123059B2, “Predicting cardiotoxicity risk in cancer patients receiving anthracyclines chemotherapy” (Fundación Para La Investigación Del Hospital Universitario …, priority 2018, dated 2024).

Test system: human cardiomyocytes
Test: Modulation of miRNA copy number by Doxorubicin in human cardiomyocytes in culture
Type: cell-based
Conditions: Doxorubicin 1 μM for 24 h, FIG. 4
Experimental: FIG. 4. (A, B) Graphics showing modulation of miRNAs by Doxorubicin in human cardiomyocytes and patients' serum. Left panels show copy number of indicated miRNAs in cardiomyocytes in culture before or after the addition of Doxorubicin (1 μM) for 24 h. Right panels show copy numbers of indicated miRNAs as detected by RNAseq in serum from control patients and cases and expressed as mean±SEM (N=10 in each case) before or after completion of anthracycline chemotherapy. Only miRNAs showing a similar tendency in cells and patients' serum are illustrated. *P<0.05.
The specific signature of miRNAs has been detected in serum. Since the pathways related to miRNAs are linked to cardiomyocytes, the copy number of the miRNAs of interest in human cardiomyocytes was also measured. As observed in FIG. 4, the miRNAs previously detected in serum were also present in human cardiomyocytes (left panels) and their expression level is altered when cells are damaged by Doxorubicin. […] As shown in the right panel of FIG. 4, the copy number of miRNA-22-3p increases both in cells and serum of patients after anthracycline treatment whereas miRNA-30b, miRNA-148a, miRNA-150-5p, and miRNA-4732-3p decrease their expression levels. […] Indeed, this set of miRNAs regulates genes involved in the aforementioned biological pathways (FIG. 5)

Structure (SMILES): COc1cccc2c1C(=O)c1c(O)c3c(c(O)c1C2=O)C[C@@](O)(C(=O)CO)C[C@@H]3O[C@H]1C[C@H](N)[C@H](O)[C@H](C)O1 [Doxorubicin]
- copy number of miRNA-22-3p: increases
- expression level of miRNA-30b: decrease
- expression level of miRNA-148a: decrease
- expression level of miRNA-150-5p: decrease
- expression level of miRNA-4732-3p: decrease
